Our source for the MIC values is DBAASP.

≈ marks a conversion by molar mass, not a printed value.

Common to all, as to experiment: ≥ marks a high value that may be exact or a test limit, other limits are often not marked, values filed in µg/mL are converted to µM
Experiment [1] concerns Candida albicans NCPF 1467.
Experiment [2] relates to Staphylococcus aureus NCTC 10788.
Experiment [3] deals with Bacillus cereus.
Experiment [4] has as its system Escherichia coli.
Experiment [5] relates to Leuconostoc lactis.
The subject of experiment [6] is Listeria innocua.
Experiment [7] deals with Micrococcus luteus.
The test system of experiment [8] is Pasteurella multocida.
Experiment [9] relates to Staphylococcus aureus.
For experiment [10], the system named is Staphylococcus epidermidis.
The test system of experiment [11] is Streptococcus uberis.
The test system of experiment [12] is Escherichia coli JW0013.
Experiment [13] deals with Bacillus subtilis.
The test system of experiment [14] is Candida albicans ATCC 2002.
The test system of experiment [15] is Escherichia coli ML-35p.
Experiment [16] deals with Pseudomonas aeruginosa ATCC 27853.
For experiment [17], the system named is Pseudomonas aeruginosa PAO1.
Experiment [18] relates to Staphylococcus aureus ATCC 2592.
In experiment [19] the test system is Staphylococcus aureus ATCC 43300.
Experiment [20] relates to Bacillus subtilis 168.
Experiment [21] has as its system Candida albicans F7-39/IDE99.
The test system of experiment [22] is Escherichia coli B.
Experiment [23] has as its system Pseudomonas aeruginosa.
The test system of experiment [24] is Escherichia coli NCTC 10418.

As for `CC[C@H](C)[C@H](NC(=O)[C@H](C)NC(=O)CNC(=O)[C@H](Cc1ccccc1)NC(=O)[C@@H](N)Cc1ccccc1)C(=O)N[C@@H](C)C(=O)N[C@@H](C)C(=O)N[C@@H](C)C(=O)N[C@@H](CC(C)C)C(=O)N1CCC[C@H]1C(=O)N[C@@H](Cc1cnc[nH]1)C(=O)N[C@H](C(=O)N[C@H](C(=O)N[C@@H](CO)C(=O)N[C@@H](C)C(=O)N[C@H](C(=O)N[C@@H](CCCCN)C(=O)N[C@@H](CC(N)=O)C(=O)N[C@@H](C)C(=O)N[C@@H](CC(C)C)C(=O)O)[C@@H](C)CC)[C@@H](C)CC)C(C)C` [FFGAIAAALPHVISAIKNAL], the minimal inhibitory concentration (MIC) in experiment [1] was ≥ 120 µM; in experiment [2], 16 µM (≈ 32.4 µg/mL).

For `CC[C@H](C)[C@H](NC(=O)[C@@H](NC(=O)[C@H](CC(=O)O)NC(=O)[C@H](Cc1ccccc1)NC(=O)[C@H](CC(C)C)NC(=O)CN)C(C)C)C(=O)N[C@@H](C)C(=O)N[C@@H](CCCCN)C(=O)N[C@H](C(=O)N[C@@H](C)C(=O)N[C@@H](CO)C(=O)N[C@H](C(=O)N[C@H](C(=O)N[C@@H](CCCCN)C(=O)N[C@@H](CCCCN)C(=O)N[C@@H](CC(C)C)C(N)=O)[C@@H](C)CC)C(C)C)C(C)C` [GLFDVIAKVASVIKKL], the MIC in experiment [3] is 7.05 µM (≈ 12 µg/mL); in experiment [4], 29.4 µM (≈ 50 µg/mL); in experiment [5] it was 3.53 µM (≈ 6 µg/mL); in experiment [6] it was 14.7 µM (≈ 25 µg/mL); in experiment [7] it was 7.05 µM (≈ 12 µg/mL); in experiment [8], ≥ 58.8 µM. Besides, the minimum inhibitory concentration (MIC) in [9] was 3.53 µM (≈ 6 µg/mL); in [10], 3.53 µM (≈ 6 µg/mL); in [11], 7.05 µM (≈ 12 µg/mL).

For `CC[C@H](C)[C@H](NC(=O)[C@H](CCCN=C(N)N)NC(=O)[C@H](CCCN=C(N)N)NC(=O)[C@@H]1CCCN1C(=O)[C@@H]1CCCN1C(=O)[C@H](CCCN=C(N)N)NC(=O)[C@H](CCCN=C(N)N)NC(=O)[C@H](CCCN=C(N)N)NC(=O)[C@@H]1CCCN1C(=O)[C@H](CC(C)C)NC(=O)[C@H](CCCN=C(N)N)NC(=O)[C@@H]1CCCN1C(=O)[C@H](CCCCN)NC(=O)[C@H](CCCCN)NC(=O)[C@H](CC(=O)O)NC(=O)[C@@H](N)C(C)C)C(=O)N[C@@H](Cc1ccc(O)cc1)C(=O)N[C@@H](CC(N)=O)C(=O)N[C@@H](CCCN=C(N)N)C(N)=O` [VDKKPRLPRRRPPRRIYNR], in experiment [12], the minimal inhibitory concentration (MIC) came to 0.687 µM (≈ 1.7 µg/mL).

For the compound `CC[C@H](C)[C@H](NC(=O)[C@H](C)NC(=O)[C@@H](NC(=O)[C@@H]1CCCN1C(=O)[C@H](CC(C)C)NC(=O)[C@@H](NC(=O)[C@H](CO)NC(=O)[C@@H](NC(=O)[C@H](C)NC(=O)[C@H](CCSC)NC(=O)[C@H](CCCCN)NC(=O)[C@H](CC(C)C)NC(=O)[C@@H](NC(=O)[C@@H]1CCCN1C(=O)CNC(=O)[C@@H](NC(=O)[C@@H](N)Cc1ccccc1)[C@@H](C)CC)C(C)C)[C@@H](C)O)[C@@H](C)CC)[C@@H](C)O)C(=O)N[C@H]1CSSC[C@@H](C(=O)O)NC(=O)[C@H](CCCCN)NC(=O)[C@H](CCCCN)NC(=O)[C@H](Cc2ccccc2)NC(=O)CNC(=O)[C@H](CCCCN)NC1=O` [FIGPVLKMATSILPTAICKGFKKC], the MIC in experiment [13] was 7.79 µM (≈ 20 µg/mL); in experiment [14], 3.9 µM (≈ 9.99 µg/mL); in [15] it was 19.5 µM (≈ 50 µg/mL); in [16], 1.95 µM (≈ 5 µg/mL); in experiment [17] it was 3.9 µM (≈ 9.99 µg/mL); in experiment [18], 1.95 µM (≈ 5 µg/mL). This compound returned a minimal inhibitory concentration (MIC) in experiment [19] of 3.9 µM (≈ 9.99 µg/mL).

On to `CC[C@H](C)[C@H](NC(=O)[C@H](CC(C)C)NC(=O)[C@H](CO)NC(=O)[C@@H](NC(=O)[C@H](CC(C)C)NC(=O)[C@H](C)NC(=O)[C@@H]1CCCN1C(=O)[C@@H](NC(=O)[C@H](CC(C)C)NC(=O)[C@H](Cc1ccccc1)NC(=O)[C@@H]1CCCN1C(=O)[C@H](CC(C)C)NC(=O)[C@@H](N)Cc1ccccc1)[C@@H](C)CC)[C@@H](C)O)C(=O)N[C@@H](CO)C(=O)N[C@@H](CO)C(=O)N[C@@H](CC(C)C)C(N)=O` [FLPFLIPALTSLISSL], for which the MIC was ≥ 150 µM in experiment [1] and ≥ 50 µM in experiment [2].

Regarding `CSCC[C@H](NC(=O)CNC(=O)[C@H](Cc1ccccc1)NC(=O)[C@H](C)N)C(=O)N[C@@H](C)C(=O)N[C@@H](CC(C)C)C(=O)N[C@@H](CCCCN)C(=O)N[C@@H](CC(C)C)C(=O)N[C@@H](CC(C)C)C(=O)N[C@@H](CCCCN)C(=O)N[C@@H](CCCCN)C(=O)N[C@H](C(=O)N[C@@H](CC(C)C)C(N)=O)C(C)C` [AFGMALKLLKKVL], the minimal inhibitory concentration (MIC) came out at 1.3 µM (≈ 1.86 µg/mL) in experiment [20]; 10 µM (≈ 14.3 µg/mL) in [21]; 4.7 µM (≈ 6.73 µg/mL) in experiment [22]; 38.3 µM (≈ 54.8 µg/mL) in experiment [23]; 4.7 µM (≈ 6.73 µg/mL) in experiment [9].

Turning to `CC[C@H](C)[C@H](NC(=O)CNC(=O)[C@@H]1CCCN1C(=O)[C@H](CC(C)C)NC(=O)[C@H](C)NC(=O)[C@H](CC(N)=O)NC(=O)[C@H](CCCCN)NC(=O)[C@H](Cc1ccccc1)NC(=O)[C@H](C)NC(=O)[C@H](CO)NC(=O)[C@H](CC(C)C)NC(=O)[C@@H](NC(=O)CN)C(C)C)C(=O)N[C@@H](CCSC)C(=O)N[C@@H](CCCCN)C(=O)N[C@H](C(=O)N[C@H](C(=O)N[C@H](C(N)=O)C(C)C)[C@@H](C)CC)[C@@H](C)CC` [GVLSAFKNALPGIMKIIV], the MIC in [1] is 8.55 µM (≈ 16 µg/mL); in experiment [24], ≥ 34.2 µM; in experiment [2], 4.28 µM (≈ 8 µg/mL).

Regarding `CC[C@H](C)[C@H](NC(=O)[C@H](C)NC(=O)[C@H](C)NC(=O)[C@H](CC(C)C)NC(=O)[C@@H](NC(=O)[C@H](CCCCN)NC(=O)[C@H](CCCNC(=N)N)NC(=O)[C@@H]1CCCN1C(=O)[C@H](CC(C)C)NC(=O)CN)[C@@H](C)CC)C(=O)N[C@@H](C)C(=O)N[C@@H](CCCCN)C(=O)N[C@@H](CCCCN)C(=O)N[C@@H](CCCCN)C(=O)NCC(=O)N[C@@H](CCCCN)C(=O)N[C@H]1CSSC[C@@H](C(=O)O)NC(=O)[C@H](CCCCN)NC(=O)[C@H](C)NC(=O)[C@H](C(C)C)NC(=O)[C@H](CC(C)C)NC(=O)[C@H](CCCCN)NC(=O)[C@H](CC(C)C)NC(=O)[C@@H]2CCCN2C(=O)CNC(=O)[C@H](CCCCN)NC1=O` [GLPRKILAAIAKKKGKCKGPLKLVAKC], the MIC is 4.2 µM (≈ 11.9 µg/mL) in experiment [13]; ≥ 50 µM in [21]; ≥ 100 µM in [22]; > 100 µM in experiment [23]; > 100 µM in [9].

In the case of `CC[C@H](C)[C@H](NC(=O)[C@H](CO)NC(=O)CNC(=O)CNC(=O)[C@@H](NC(=O)[C@H](CC(C)C)NC(=O)[C@H](CO)NC(=O)[C@@H]1CCCN1C(=O)[C@@H](NC(=O)[C@H](CC(C)C)NC(=O)[C@H](CO)NC(=O)[C@H](CC(C)C)NC(=O)[C@@H](N)Cc1ccccc1)[C@@H](C)CC)C(C)C)C(=O)N[C@@H](CO)C(=O)N[C@@H](C)C(=O)N[C@@H](Cc1ccccc1)C(=O)N[C@@H](CCCCN)C(=O)O` [FLSLIPSLVGGSISAFK], the MIC in [1] was ≥ 160 µM; in experiment [24] it was ≥ 160 µM; in experiment [2], ≥ 120 µM.

The compound `CC[C@H](C)[C@H](NC(=O)[C@H](CCCN=C(N)N)NC(=O)[C@H](CCCN=C(N)N)NC(=O)[C@@H]1CCCN1C(=O)[C@@H]1CCCN1C(=O)[C@H](CCCN=C(N)N)NC(=O)[C@H](CCCN=C(N)N)NC(=O)[C@H](CCCN=C(N)N)NC(=O)[C@@H]1CCCN1C(=O)[C@H](CC(C)C)NC(=O)[C@H](Cc1ccc(O)cc1)NC(=O)[C@H](Cc1cnc[nH]1)NC(=O)[C@H](CCCN=C(N)N)NC(=O)[C@H](CCCCN)NC(=O)[C@H](CC(=O)O)NC(=O)[C@@H](N)C(C)C)C(=O)N[C@@H](Cc1ccc(O)cc1)C(=O)N[C@@H](CC(N)=O)C(=O)N[C@@H](CCCN=C(N)N)C(N)=O` [VDKRHYLPRRRPPRRIYNR] yielded an MIC in experiment [12] of 0.628 µM (≈ 1.6 µg/mL).
